Measurements taken from patent US10968172B2, “USP30 inhibitors” (Mitobridge, Inc., priority 2017, dated 2021).

These compounds were tested against USP30 (Homo sapiens (Human), UniProt Q70CQ3) (assay: In vitro biochemical assay for USP30 enzyme (Ubiquitin-Rhodamine110 cleavage, fluorescence)). Settings: 20 nM USP30, 15 min pre-incubation, 100 nM Ub rhodamine substrate, 2 hrs at room temperature.
Experimental: In vitro biochemical assay for USP30 enzyme
The in vitro assay for USP30 evaluates the ability of a test compound to inhibit the activity of the enzyme to cleave ubiquitin from a substrate. Ubiquitin-rhodamine 110 is a quenched, fluorescent substrate for USP30. Cleavage of the amide bond between the C-terminal glycine of ubiquitin and rhodamine results in an increase in rhodamine fluorescence at 535 nm (Exc. 485 nm).
Incubation of the substrate in the presence or absence of USP30 was compared to confirm the deubiquitylating activity of USP30. The USP30 enzyme assay was performed by pre-incubating 20 nM of USP30 with varying concentration of a test compound in the assay buffer [PBS (pH 7.4), 1 mM DTT, 0.01% Tween 20, 0.01% BSA, DMSO final concentration is 1%] for 15 mins at room temperature, following which 100 nM of substrate Ub rhodamine was added and incubated at room temperature for 2 hrs and the plate was read for fluorescence intensity at Ex. 485 nm/535 nm in VICTOR X5 plate reader. The percent inhibition of activity of the enzyme is calculated by comparing counts in the presence and absence of compounds.
Test compounds were screened at various concentrations (10-12 tested concentrations) and dose response curves were generated was generated using GraphPad Prism software Version 7 (San Diego, Calif., USA) with non-linear regression curve fit for sigmoidal dose response (variable slope).

USP30, sequence (Q70CQ3 whole entry): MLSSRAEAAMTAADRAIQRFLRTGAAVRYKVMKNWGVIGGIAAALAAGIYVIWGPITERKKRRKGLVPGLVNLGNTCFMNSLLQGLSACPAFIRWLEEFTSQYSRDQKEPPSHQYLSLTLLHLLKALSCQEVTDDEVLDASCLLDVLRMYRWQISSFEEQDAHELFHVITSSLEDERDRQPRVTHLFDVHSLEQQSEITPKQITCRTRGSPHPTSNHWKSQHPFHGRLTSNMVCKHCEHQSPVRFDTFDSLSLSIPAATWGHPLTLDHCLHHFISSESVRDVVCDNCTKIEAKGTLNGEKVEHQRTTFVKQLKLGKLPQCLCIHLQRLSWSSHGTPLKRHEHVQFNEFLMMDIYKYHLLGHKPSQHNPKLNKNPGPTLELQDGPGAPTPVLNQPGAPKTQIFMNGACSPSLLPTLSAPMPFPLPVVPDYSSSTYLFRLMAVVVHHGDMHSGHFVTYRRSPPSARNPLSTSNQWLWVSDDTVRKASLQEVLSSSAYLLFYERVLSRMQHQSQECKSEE

Row | SMILES | IC50 [nM]
1 | CC(C)(C)NS(=O)(=O)c1cccc2c(NC(=O)[C@H](Cc3ccc(F)cc3)NC(=O)c3ccccc3)cccc12 [Compound 7e, (S)-N-(1-((5-(N-(tert-butyl)sulfamoyl)naphthalen-1-yl)amino)-3-(4-fluorophenyl)-1-oxopropan-2-yl)benzamide] | 153
2 | COc1ccc(C[C@H](NC(=O)c2ccccc2)C(=O)Nc2cccc3c(S(=O)(=O)NC(C)(C)C)cccc23)cc1 [Compound 7f, (S)-N-(1-((5-(N-(tert-butyl)sulfamoyl)naphthalen-1-yl)amino)-3-(4-methoxyphenyl)-1-oxopropan-2-yl)benzamide] | 89
3 | CC(C)(C)NS(=O)(=O)c1cccc2c(NC(=O)[C@H](CC3CC3)NC(=O)c3ccccc3)cccc12 [Compound 7h, (S)-N-(1-((5-(N-(tert-butyl)sulfamoyl)naphthalen-1-yl)amino)-3-cyclopropyl-1-oxopropan-2-yl)benzamide] | 2200
4 | CC(C)(C)NS(=O)(=O)c1cccc2c(NC(=O)[C@H](Cc3cnc[nH]3)NC(=O)c3ccccc3)cccc12 [Compound 7i, (S)-N-(1-((5-(N-(tert-butyl)sulfamoyl)naphthalen-1-yl)amino)-3-(1H-imidazol-5-yl)-1-oxopropan-2-yl)benzamide] | > 10000
5 | CC(C)(C)NS(=O)(=O)c1cccc2c(NC(=O)[C@H](Cc3ccc(C#N)cc3)NC(=O)c3ccccc3)cccc12 [Compound 7j, (S)-N-(1-((5-(N-(tert-butyl)sulfamoyl)naphthalen-1-yl)amino)-3-(4-cyanophenyl)-1-oxopropan-2-yl)benzamide] | 273
6 | CC(C)(C)NS(=O)(=O)c1cccc2c(NC(=O)[C@H](Cc3cccs3)NC(=O)c3ccccc3)cccc12 [Compound 7k, (S)-N-(1-((5-(N-(tert-butyl)sulfamoyl)naphthalen-1-yl)amino)-1-oxo-3-(thiophen-2-yl)propan-2-yl)benzamide] | 230
7 | Cc1ccccc1C[C@H](NC(=O)c1ccccc1)C(=O)Nc1cccc2c(S(=O)(=O)NC(C)(C)C)cccc12 [Compound 7l, (S)-N-(1-((5-(N-(tert-butyl)sulfamoyl)naphthalen-1-yl)amino)-1-oxo-3-(o-tolyl)propan-2-yl)benzamide] | > 10000
8 | Cc1ccc(C[C@H](NC(=O)c2ccccc2)C(=O)Nc2cccc3c(S(=O)(=O)NC(C)(C)C)cccc23)cc1 [Compound 7m, (S)-N-(1-((5-(N-(tert-butyl)sulfamoyl)naphthalen-1-yl)amino)-1-oxo-3-(p-tolyl)propan-2-yl)benzamide] | > 10000
9 | CC(C)(C)NS(=O)(=O)c1cccc2c(NC(=O)[C@H](Cc3ccc(Cl)cc3)NC(=O)c3ccccc3)cccc12 [Compound 7n, (S)-N-(1-((5-(N-(tert-butyl)sulfamoyl)naphthalen-1-yl)amino)-3-(4-chlorophenyl)-1-oxopropan-2-yl)benzamide] | 446
10 | CC(C)(C)NS(=O)(=O)c1ccc(NC(=O)[C@H](Cc2ccccc2)NC(=O)c2ccccc2)cc1 [Compound 10a, (S)-N-(1-((4-(N-(tert-butyl)sulfamoyl)phenyl)amino)-1-oxo-3-phenylpropan-2-yl)benzamide] | > 10000
11 | CC(C)(C)NS(=O)(=O)c1ccc(NC(=O)[C@H](Cc2ccccc2)NC(=O)C2CCCCC2)cc1 [Compound 10b, (S)—N-(1-((4-(N-(tert-butyl)sulfamoyl)phenyl)amino)-1-oxo-3-phenylpropan-2-yl)cyclohexanecarboxamide] | 59
12 | CC(C)(C)NS(=O)(=O)c1ccc(NC(=O)[C@H](Cc2ccccc2)NC(=O)C2CCCC2)cc1 [Compound 10c, (S)-N-(1-((4-(N-(tert-butyl)sulfamoyl)phenyl)amino)-1-oxo-3-phenylpropan-2-yl)cyclopentanecarboxamide] | 71
13 | CC(C)(C)NS(=O)(=O)c1ccc(NC(=O)[C@@H](Cc2ccccc2)NC(=O)C2CCCCC2)cc1 [Compound 10d, (R)-N-(1-((4-(N-(tert-butyl)sulfamoyl)phenyl)amino)-1-oxo-3-phenylpropan-2-yl)cyclohexanecarboxamide] | 28
14 | CC(C)(C)NS(=O)(=O)c1ccc(NC(=O)[C@H](Cc2ccccc2)NC(=O)c2ccc(F)cc2)cc1 [Compound 10e] | 17
15 | CC(C)(C)NS(=O)(=O)c1ccc(NC(=O)[C@H](Cc2ccccc2)NC(=O)c2ccc(C(=O)O)cc2)cc1 [Compound 10f, (S)-4-((1-((4-(N-(tert-butyl)sulfamoyl)phenyl)amino)-1-oxo-3-phenylpropan-2-yl)carbamoyl)benzoic acid] | > 10000
16 | COC(=O)c1ccc(C(=O)N[C@@H](Cc2ccccc2)C(=O)Nc2ccc(S(=O)(=O)NC(C)(C)C)cc2)cc1 [Compound 10g, methyl (S)-4-((1-((4-(N-(tert-butyl)sulfamoyl)phenyl)amino)-1-oxo-3-phenylpropan-2-yl)carbamoyl)benzoate] | > 10000

Row | SMILES | IC50 [nM]
17 | CC(C)(C)NS(=O)(=O)c1ccc(NC(=O)[C@H](Cc2ccccc2)NC(=O)c2ccccn2)cc1 [Compound 10h, (S)-N-(1-((4-(N-(tert-butyl)sulfamoyl)phenyl)amino)-1-oxo-3-phenylpropan-2-yl)picolinamide] | 250
18 | CC(C)(C)NS(=O)(=O)c1ccc(NC(=O)[C@H](Cc2ccccc2)NC(=O)[C@@H]2CCCN2)cc1 [Compound 10i, (S)-N-((S)-1-((4-(N-(tert-butyl)sulfamoyl)phenyl)amino)-1-oxo-3-phenylpropan-2-yl)pyrrolidine-2-carboxamide] | > 10000
19 | CC(C)(C)NS(=O)(=O)c1ccc(NC(=O)[C@H](Cc2ccccc2)NC(=O)c2cccnn2)cc1 [Compound 10j, (S)-N-(1-((4-(N-(tert-butyl)sulfamoyl)phenyl)amino)-1-oxo-3-phenylpropan-2-yl)pyridazine-3-carboxamide] | 148
20 | CC(C)(C)NS(=O)(=O)c1ccc(NC(=O)[C@H](CC2CCCCC2)NC(=O)c2ccccc2)cc1 [Compound 14a, (S)-N-(1-((4-(N-(tert-butyl)sulfamoyl)phenyl)amino)-3-cyclohexyl-1-oxopropan-2-yl)benzamide] | 225
21 | CC(C)(C)NS(=O)(=O)c1ccc(NC(=O)[C@H](CC2CCCCC2)NC(=O)C2CCCCC2)cc1 [Compound 14b, (S)-N-(1-((4-(N-(tert-butyl)sulfamoyl)phenyl)amino)-3-cyclohexyl-1-oxopropan-2-yl)cyclohexanecarboxamide] | 83
22 | CC(C)(C)NS(=O)(=O)c1ccc(NC(=O)[C@H](CC2CCCCC2)NC(=O)c2ccc(F)cc2)cc1 [Compound 14c, (S)-N-(1-((4-(N-(tert-butyl)sulfamoyl)phenyl)amino)-3-cyclohexyl-1-oxopropan-2-yl)-4-fluorobenzamide] | 23
23 | CC(C)(C)NS(=O)(=O)c1ccc(NC(=O)[C@H](CC2CCCCC2)NC(=O)c2ccc(C(F)(F)F)cc2)cc1 [Compound 14d, (S)-N-(1-((4-(N-(tert-butyl)sulfamoyl)phenyl)amino)-3-cyclohexyl-1-oxopropan-2-yl)-4-(trifluoromethyl)benzamide] | > 10000
24 | CC(C)(C)NS(=O)(=O)c1ccc(NC(=O)[C@H](CC2CCCCC2)NC(=O)C2CCCC2)cc1 [Compound 14e, (S)-N-(1-((4-(N-(tert-butyl)sulfamoyl)phenyl)amino)-3-cyclohexyl-1-oxopropan-2-yl)cyclopentanecarboxamide] | 120
25 | CC(C)(C)NS(=O)(=O)c1ccc(NC(=O)[C@H](CC2CCCCC2)NC(=O)c2ccccc2F)cc1 [Compound 14f, (S)-N-(1-((4-(N-(tert-butyl)sulfamoyl)phenyl)amino)-3-cyclohexyl-1-oxopropan-2-yl)-2-fluorobenzamide] | 461
26 | CC(C)(C)NS(=O)(=O)c1ccc(NC(=O)[C@H](CC2CCCCC2)NC(=O)c2cccc(F)c2)cc1 [Compound 14g, (S)-N-(1-((4-(N-(tert-butyl)sulfamoyl)phenyl)amino)-3-cyclohexyl-1-oxopropan-2-yl)-3-fluorobenzamide] | 57
27 | CC(C)(C)NS(=O)(=O)c1ccc(NC(=O)[C@H](CC2CCCCC2)NC(=O)c2ccc(F)c(F)c2)cc1 [Compound 14h, (S)-N-(1-((4-(N-(tert-butyl)sulfamoyl)phenyl)amino)-3-cyclohexyl-1-oxopropan-2-yl)-3,4-difluorobenzamide] | 31
28 | CC(C)(C)NS(=O)(=O)c1ccc(NC(=O)[C@H](CC2CCCCC2)NC(=O)c2cccc(C#N)c2)cc1 [Compound 14i, (S)-N-(1-((4-(N-(tert-butyl)sulfamoyl)phenyl)amino)-3-cyclohexyl-1-oxopropan-2-yl)-3-cyanobenzamide] | > 10000
29 | CC(C)(C)NS(=O)(=O)c1ccc(NC(=O)[C@H](CC2CCCCC2)NC(=O)c2ccccn2)cc1 [Compound 14j, (S)-N-(1-((4-(N-(tert-butyl)sulfamoyl)phenyl)amino)-3-cyclohexyl-1-oxopropan-2-yl)picolinamide] | 123
30 | CC(C)(C)NS(=O)(=O)c1ccc(NC(=O)[C@H](Cc2cccs2)NC(=O)C2CCCCC2)cc1 [Compound 19a, (S)-N-(1-((4-(N-(tert-butyl)sulfamoyl)phenyl)amino)-1-oxo-3-(thiophen-2-yl)propan-2-yl)cyclohexanecarboxamide] | 28
31 | COc1ccc(C[C@H](NC(=O)c2cccnc2)C(=O)Nc2ccc(S(=O)(=O)NC(C)(C)C)cc2)cc1 [Compound 19aa, (S)-N-(1-((4-(N-(tert-butyl)sulfamoyl)phenyl)amino)-3-(4-methoxyphenyl)-1-oxopropan-2-yl)nicotinamide] | 208
